Like-named read-outs stand apart in the source and are kept apart here.
Columns and labels:
in vitro = conditions: African green monkey
Vero cell lines = assay: Cell viability of Vero cells in the SARS-CoV-2 inhibition experiment (Example 2)
SARS-CoV-2 [1] = assay: microbe, parasite or virus in culture; format: cell-based; conditions: read-out: SARS-CoV-2 virus 50% inhibitory ability (IC50 value)
SARS-CoV-2 [2] = assay: microbe, parasite or virus in culture; format: cell-based; conditions: for IC50: read-out: SARS-CoV-2 virus 50% inhibitory ability (IC50 value); for SARS-CoV-2 inhibitory ability (in words): comparison at IC50 values with Remdesivir, Lopinavir and Chloroquine
VERO cells = assay: Cell viability of VERO cells by WST-1 assay (Example 3); conditions: read-out: 50% cell viability inhibitory concentration (CC50 value); VERO cells, WST-1 assay

COc1cc2cc3c(c(-c4cc5c(cc4O)OCO5)c2cc1OC)C(=O)OC3 [6′ hydroxyl justicidin-B, 9-(6-hydroxy-benzo[1,3]dioxol-5-yl)-6,7-dimethoxy-3H-naphtho[2,3-c]furan-1-one]
CC50 (in vitro): 314 µM
Cell viability (%, average ± standard deviation) (Vero cell lines; concentration 0.10 uM): 100.66 ± 0.73%
Cell viability (%, average ± standard deviation) (Vero cell lines; concentration 0.20 uM): 104.63 ± 0.44%
Cell viability (%, average ± standard deviation) (Vero cell lines; concentration 0.39 uM): 105.17 ± 0.85%
Cell viability (%, average ± standard deviation) (Vero cell lines; concentration 1.56 uM): 107.86 ± 0.60%
Cell viability (%, average ± standard deviation) (Vero cell lines; concentration 3.13 uM): 105.46 ± 0.38%
Cell viability (%, average ± standard deviation) (Vero cell lines; concentration 6.25 uM): 103.44 ± 1.31%
Cell viability (%, average ± standard deviation) (Vero cell lines; concentration 12.5 uM): 101.11 ± 0.36%
Cell viability (%, average ± standard deviation) (Vero cell lines; concentration 25 uM): 97.80 ± 1.29%
Cell viability (%, average ± standard deviation) (Vero cell lines; concentration 50 uM): 93.38 ± 0.72%
IC50 (SARS-CoV-2 [1]; Severe acute respiratory syndrome coronavirus 2, Vero): 0.05 µM
IC50 (SARS-CoV-2 [2]; Severe acute respiratory syndrome coronavirus 2, Vero, 24 h): 1.06 µM
inhibition at 0.1 µM (SARS-CoV-2 [2]; Severe acute respiratory syndrome coronavirus 2, concentration 0.10 uM, Vero cells, 24 h, read-out: SARS-CoV-2 virus inhibitory ability (%, average ± standard deviation)): 1.45 ± 1.16%
inhibition at 0.2 µM (SARS-CoV-2 [2]; Severe acute respiratory syndrome coronavirus 2, concentration 0.20 uM, Vero cells, 24 h, read-out: SARS-CoV-2 virus inhibitory ability (%, average ± standard deviation)): -1.71 ± 4.34%
inhibition at 0.39 µM (SARS-CoV-2 [2]; Severe acute respiratory syndrome coronavirus 2, concentration 0.39 uM, Vero cells, 24 h, read-out: SARS-CoV-2 virus inhibitory ability (%, average ± standard deviation)): 3.39 ± 3.95%
inhibition at […] (SARS-CoV-2 [2]; Severe acute respiratory syndrome coronavirus 2, concentration 0.78 uM, Vero cells, 24 h, read-out: SARS-CoV-2 virus inhibitory ability (%, average ± standard deviation)): 35.6 ± 0.69%
inhibition at 1.56 µM (SARS-CoV-2 [2]; Severe acute respiratory syndrome coronavirus 2, concentration 1.56 uM, Vero cells, 24 h, read-out: SARS-CoV-2 virus inhibitory ability (%, average ± standard deviation)): 68.6 ± 3.12%
inhibition at 3.13 µM (SARS-CoV-2 [2]; Severe acute respiratory syndrome coronavirus 2, concentration 3.13 uM, Vero cells, 24 h, read-out: SARS-CoV-2 virus inhibitory ability (%, average ± standard deviation)): 95.86 ± 0.86%
inhibition at 6.25 µM (SARS-CoV-2 [2]; Severe acute respiratory syndrome coronavirus 2, concentration 6.25 uM, Vero cells, 24 h, read-out: SARS-CoV-2 virus inhibitory ability (%, average ± standard deviation)): 99.74 ± 0.24%
inhibition at 12.5 µM (SARS-CoV-2 [2]; Severe acute respiratory syndrome coronavirus 2, concentration 12.5 uM, Vero cells, 24 h, read-out: SARS-CoV-2 virus inhibitory ability (%, average ± standard deviation)): 98.9 ± 1.49%
inhibition at 25 µM (SARS-CoV-2 [2]; Severe acute respiratory syndrome coronavirus 2, concentration 25 uM, Vero cells, 24 h, read-out: SARS-CoV-2 virus inhibitory ability (%, average ± standard deviation)): 99.79 ± 0.6%
inhibition at 50 µM (SARS-CoV-2 [2]; Severe acute respiratory syndrome coronavirus 2, concentration 50 uM, Vero cells, 24 h, read-out: SARS-CoV-2 virus inhibitory ability (%, average ± standard deviation)): 97.8 ± 2.47%
SARS-CoV-2 inhibitory ability (in words) (SARS-CoV-2 [2]; Vero cells): remarkably more excellent

COc1cc2cc3c(c(-c4ccc5c(c4)OCO5)c2cc1OC)C(=O)OC3 [Justicidin-B, 9-benzo[1,3]dioxol-5-yl-6,7-dimethoxy-3H-naphtho[2,3-c]furanone]
CC50 (VERO cells): > 800 µM
Cell viability (%, average ± standard deviation) (Vero cell lines; concentration 0.10 uM): 107.08 ± 1.75%
Cell viability (%, average ± standard deviation) (Vero cell lines; concentration 0.20 uM): 110.62 ± 0.00%
Cell viability (%, average ± standard deviation) (Vero cell lines; concentration 0.39 uM): 107.70 ± 4.88%
Cell viability (%, average ± standard deviation) (Vero cell lines; concentration 1.56 uM): 102.83 ± 5.24%
Cell viability (%, average ± standard deviation) (Vero cell lines; concentration 3.13 uM): 98.69 ± 5.68%
Cell viability (%, average ± standard deviation) (Vero cell lines; concentration 6.25 uM): 94.60 ± 3.46%
Cell viability (%, average ± standard deviation) (Vero cell lines; concentration 12.5 uM): 90.01 ± 1.60%
Cell viability (%, average ± standard deviation) (Vero cell lines; concentration 25 uM): 83.49 ± 1.22%
Cell viability (%, average ± standard deviation) (Vero cell lines; concentration 50 uM): 78.67 ± 2.53%
IC50 (SARS-CoV-2 [1]; VERO cells infected at MOI 0.1 for one hour, then drug, culture fluid after 48 hours, qRT-PCR): 0.17 µM
SARS-CoV-2 inhibitory ability (in words) (SARS-CoV-2 [2]; Vero cells): remarkably more excellent
SARS-CoV-2 virus inhibitory ability (%, average ± standard deviation) (SARS-CoV-2 [2]; concentration 0.10 uM, Vero cells, 24 h): 13.37 ± 6.72%
SARS-CoV-2 virus inhibitory ability (%, average ± standard deviation) (SARS-CoV-2 [2]; concentration 0.20 uM, Vero cells, 24 h): 48.73 ± 2.82%
SARS-CoV-2 virus inhibitory ability (%, average ± standard deviation) (SARS-CoV-2 [2]; concentration 0.39 uM, Vero cells, 24 h): 88.06 ± 0.59%
SARS-CoV-2 virus inhibitory ability (%, average ± standard deviation) (SARS-CoV-2 [2]; concentration 1.56 uM, Vero cells, 24 h): 99.61 ± 0.65%
SARS-CoV-2 virus inhibitory ability (%, average ± standard deviation) (SARS-CoV-2 [2]; concentration 3.13 uM, Vero cells, 24 h): 100.03 ± 0.27%
SARS-CoV-2 virus inhibitory ability (%, average ± standard deviation) (SARS-CoV-2 [2]; concentration 12.5 uM, Vero cells, 24 h): 100.01 ± 0.14%
SARS-CoV-2 virus inhibitory ability (%, average ± standard deviation) (SARS-CoV-2 [2]; concentration 25 uM, Vero cells, 24 h): 100.00 ± 0.21%
SARS-CoV-2 virus inhibitory ability (%, average ± standard deviation) (SARS-CoV-2 [2]; concentration 50 uM, Vero cells, 24 h): 100.28 ± 0.49%
IC50 (SARS-CoV-2 [2]): 0.203 µM

— patent US20230143345A1, “PHARMACEUTICAL COMPOSITION FOR PREVENTION OR TREATMENT OF DISEASES CAUSED BY SARS-COV-2” (DONG WHA PHARM. CO., LTD., priority 2020, published 2023)
